Measured values published in patent publication US8497075B2, “Methods of identifying a modulator that inhibits the binding between Epstein-Barr virus induced receptor 2 and cholesterol derived ligands” (Novartis AG, priority 2008, dated 2013).

What was measured:
Assay in all cases: nuclear hormone receptor reporter gene assay
Format in all cases: cell-based
Details in all cases: concentrations up to 10 μM
[1] = biological target: T1, RXRa (NR2B1) (Homo sapiens, UniProt P19793)
T1 sequence (P19793 1-462): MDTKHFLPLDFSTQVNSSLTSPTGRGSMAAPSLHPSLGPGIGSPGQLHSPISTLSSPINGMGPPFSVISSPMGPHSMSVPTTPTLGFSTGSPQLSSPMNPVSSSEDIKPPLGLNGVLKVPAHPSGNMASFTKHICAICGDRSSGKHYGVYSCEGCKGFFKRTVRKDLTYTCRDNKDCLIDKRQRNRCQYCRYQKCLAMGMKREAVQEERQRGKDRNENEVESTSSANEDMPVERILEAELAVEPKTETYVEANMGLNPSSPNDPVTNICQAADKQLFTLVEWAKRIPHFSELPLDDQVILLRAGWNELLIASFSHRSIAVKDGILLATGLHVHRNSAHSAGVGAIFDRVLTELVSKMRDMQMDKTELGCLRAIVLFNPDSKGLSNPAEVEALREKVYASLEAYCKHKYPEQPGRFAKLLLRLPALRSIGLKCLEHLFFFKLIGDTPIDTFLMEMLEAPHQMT
Text: (§1) So far oxysterols have been noted to have various physiological activities namely regulate the expression of genes that participate in both sterol and fat metabolism, serve as substrates for the synthesis of bile acids, and are intermediates in the transfer of sterols from the periphery to the liver (Russell, D. W. (2000). Oxysterol biosynthetic enzymes. Biochim. Biophys. Acta 1529, 126-135). […] This included binding assays for 26 different GPCRs, functional assays of 9 different GPCRs, 40 kinase assays, as well as selected ion channels, proteases, transporter and enzyme assays.

[2] = biological target: T2, GR (NR3C1) (Homo sapiens, UniProt P04150)
T2 sequence (P04150 1-777): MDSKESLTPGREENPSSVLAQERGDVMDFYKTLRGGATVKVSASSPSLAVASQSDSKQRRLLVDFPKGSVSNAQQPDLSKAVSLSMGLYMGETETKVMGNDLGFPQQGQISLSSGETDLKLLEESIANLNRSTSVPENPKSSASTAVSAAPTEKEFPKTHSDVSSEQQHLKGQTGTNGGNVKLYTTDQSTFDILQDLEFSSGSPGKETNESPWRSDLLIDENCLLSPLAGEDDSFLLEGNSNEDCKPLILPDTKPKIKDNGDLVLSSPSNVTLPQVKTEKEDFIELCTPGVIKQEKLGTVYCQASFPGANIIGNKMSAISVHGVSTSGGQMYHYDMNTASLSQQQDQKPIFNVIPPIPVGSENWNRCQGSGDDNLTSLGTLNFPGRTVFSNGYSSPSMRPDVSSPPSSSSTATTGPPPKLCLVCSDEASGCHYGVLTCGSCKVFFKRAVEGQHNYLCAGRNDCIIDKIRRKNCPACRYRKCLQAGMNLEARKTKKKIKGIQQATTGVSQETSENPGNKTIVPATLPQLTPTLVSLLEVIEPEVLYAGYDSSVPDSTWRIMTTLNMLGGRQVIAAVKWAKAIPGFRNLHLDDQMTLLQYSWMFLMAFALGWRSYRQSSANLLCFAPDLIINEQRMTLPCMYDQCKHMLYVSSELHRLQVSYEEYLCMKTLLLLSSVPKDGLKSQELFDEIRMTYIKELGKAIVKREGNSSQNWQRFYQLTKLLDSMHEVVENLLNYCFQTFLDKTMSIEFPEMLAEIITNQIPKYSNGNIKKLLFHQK
Text: as §1

[3] = biological target: T3, LXRa (NR1H3) (Homo sapiens, UniProt Q13133)
T3 sequence (Q13133 1-447): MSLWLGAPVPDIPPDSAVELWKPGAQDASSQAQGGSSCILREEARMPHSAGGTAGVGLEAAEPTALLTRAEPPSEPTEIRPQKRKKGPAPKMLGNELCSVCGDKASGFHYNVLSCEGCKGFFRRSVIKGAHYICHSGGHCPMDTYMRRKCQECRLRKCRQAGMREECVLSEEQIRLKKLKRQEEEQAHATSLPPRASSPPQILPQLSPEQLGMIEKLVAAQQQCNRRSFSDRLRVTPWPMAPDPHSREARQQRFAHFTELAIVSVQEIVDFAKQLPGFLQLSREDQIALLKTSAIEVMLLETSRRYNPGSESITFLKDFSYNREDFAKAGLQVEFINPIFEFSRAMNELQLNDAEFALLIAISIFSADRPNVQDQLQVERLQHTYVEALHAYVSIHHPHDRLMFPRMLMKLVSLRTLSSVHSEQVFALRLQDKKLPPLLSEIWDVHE
Text: as §1

[4] = biological target: T4, ERa (NR3A1) (Homo sapiens, UniProt P03372)
T4 sequence (P03372 1-595): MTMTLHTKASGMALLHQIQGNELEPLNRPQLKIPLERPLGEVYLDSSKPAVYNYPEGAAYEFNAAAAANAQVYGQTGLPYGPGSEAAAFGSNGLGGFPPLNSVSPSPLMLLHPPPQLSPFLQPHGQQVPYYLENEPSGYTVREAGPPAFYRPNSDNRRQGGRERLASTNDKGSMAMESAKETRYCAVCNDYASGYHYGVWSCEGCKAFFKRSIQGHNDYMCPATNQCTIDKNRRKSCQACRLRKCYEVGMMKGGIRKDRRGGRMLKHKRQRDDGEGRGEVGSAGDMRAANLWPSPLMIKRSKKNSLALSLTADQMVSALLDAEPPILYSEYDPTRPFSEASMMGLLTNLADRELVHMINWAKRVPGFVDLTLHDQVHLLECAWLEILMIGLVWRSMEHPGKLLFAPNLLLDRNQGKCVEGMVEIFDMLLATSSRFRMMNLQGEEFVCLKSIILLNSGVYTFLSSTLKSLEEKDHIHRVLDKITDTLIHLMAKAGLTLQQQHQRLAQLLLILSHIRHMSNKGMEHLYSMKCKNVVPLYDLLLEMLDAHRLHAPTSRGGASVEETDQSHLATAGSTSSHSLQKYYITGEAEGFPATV
Text: as §1

CC(CO)CCC[C@@H](C)[C@H]1CC[C@H]2[C@@H]3[C@H](O)C=C4C[C@@H](O)CC[C@]4(C)[C@H]3CC[C@]12C (some centres unmarked) [7a,27DHC, cholest-5-ene-3b,7a,27-triol]
did not activate: activation of RXRa [1] | activation of GR [2] | activation of LXRa [3] | activation of ERa [4]

C[C@H](CCCC(C)(C)O)[C@H]1CC[C@H]2[C@@H]3[C@H](O)C=C4C[C@@H](O)CC[C@]4(C)[C@H]3CC[C@]12C [7a,25DHC, cholest-5-ene-3b,7a,25-triol]
did not activate: activation of RXRa [1] | activation of GR [2] | activation of LXRa [3] | activation of ERa [4]
